Source: article PMC8745314, “Novel Tetrazole-Based Antimicrobial Agents Targeting Clinical Bacteria Strains: Exploring the Inhibition of Staphylococcus aureus DNA Topoisomerase IV and Gyrase” (International Journal of Molecular Sciences, 2021)
Converted amounts (≈) assume the structure as drawn.

Assays:
S. aureus ATCC 29213 = assay: MIC broth microdilution, standard strain; format: cell-based; details: Staphylococcus aureus, ATCC29213; S. aureus ATCC 29213, standard strain, 19 h at 35 °C; read-out: minimal inhibitory concentration (MIC)
Protocol: (§1) All synthesized compounds were tested in vitro against a set of bacteria, including representative standard Gram-positive and Gram-negative rods. Compounds were screened for their minimal inhibitory concentrations (MICs). […] The antimicrobial assays were conducted using reference strains of bacteria derived from international microbe collections: American Type Culture Collection (ATCC) and National Collection of Type Culture (NCTC). The following standard strains of bacteria were used: Gram-positive-Staphylococcus aureus NCTC 4163, Staphylococcus aureus ATCC 25923, Staphylococcus aureus ATCC 6538, Staphylococcus aureus ATCC 29213, Staphylococcus epidermidis ATCC 12228, Staphylococcus epidermidis ATCC 35984, Gram-negative: Escherichia coli ATCC 25922, Pseudomonas aeruginosa ATCC 15442. Clinical strains of bacteria used in this study: Gram-positive: Staphylococcus epidermidis 5253, Staphylococcus epidermidis 4243, Staphylococcus aureus […], Staphylococcus aureus […] and Gram-negative: Escherichia coli 520, Escherichia coli 600, Klebsiella pneumoniae 510 and Pseudomonas aeruginosa 659 were obtained from the collection of the Department of Pharmaceutical Microbiology, Medical University of Warsaw, Poland and they were isolated from different biological materials taken from the patients hospitalized in the Warsaw Medical University hospitals. […] MIC was determined by the two-fold serial broth microdilution method in 96-well microtitration plates using Mueller-Hinton II broth medium (Becton Dickinson, Franklin Lakes, NJ, USA). The final inoculum of all studied bacteria was 10^6 CFU/mL (colony forming unit per milliliter). The stock solution of tested compounds was prepared in dimethyl sulfoxide (DMSO) and diluted to a maximum of 1% of solvent content with a sterile medium.

S. aureus ATCC 6538 = assay: MIC broth microdilution, standard strain; format: cell-based; details: Staphylococcus aureus, ATCC6538; S. aureus ATCC 6538, standard strain, 19 h at 35 °C; read-out: minimal inhibitory concentration (MIC)
Protocol: as §1

[1] = system: S. epidermidis ATCC 12228; assay: MIC broth microdilution, standard strain; format: cell-based; details: Staphylococcus epidermidis, ATCC12228; S. epidermidis ATCC 12228, standard strain, 19 h at 35 °C; read-out: minimal inhibitory concentration (MIC)
Protocol: as §1

[2] = system: S. epidermidis ATCC 35984; assay: MIC broth microdilution, standard strain; format: cell-based; details: Staphylococcus epidermidis, ATCC35984; S. epidermidis ATCC 35984, standard strain, 19 h at 35 °C; read-out: minimal inhibitory concentration (MIC)
Protocol: as §1

E. coli ATCC 25922 = assay: MIC broth microdilution, standard strain; format: cell-based; details: Escherichia coli, ATCC25922; E. coli ATCC 25922, standard strain, 19 h at 35 °C; read-out: minimal inhibitory concentration (MIC)
Protocol: (§2) All synthesized compounds were tested in vitro against a set of bacteria, including representative standard Gram-positive and Gram-negative rods. Compounds were screened for their minimal inhibitory concentrations (MICs). […] These three compounds were also found to be good inhibitors of the growth of Gram-negative rods: […] The antimicrobial assays were conducted using reference strains of bacteria derived from international microbe collections: American Type Culture Collection (ATCC) and National Collection of Type Culture (NCTC). The following standard strains of bacteria were used: Gram-positive-Staphylococcus aureus NCTC 4163, Staphylococcus aureus ATCC 25923, Staphylococcus aureus ATCC 6538, Staphylococcus aureus ATCC 29213, Staphylococcus epidermidis ATCC 12228, Staphylococcus epidermidis ATCC 35984, Gram-negative: Escherichia coli ATCC 25922, Pseudomonas aeruginosa ATCC 15442. Clinical strains of bacteria used in this study: Gram-positive: Staphylococcus epidermidis 5253, Staphylococcus epidermidis 4243, Staphylococcus aureus […], Staphylococcus aureus […] and Gram-negative: Escherichia coli 520, Escherichia coli 600, Klebsiella pneumoniae 510 and Pseudomonas aeruginosa 659 were obtained from the collection of the Department of Pharmaceutical Microbiology, Medical University of Warsaw, Poland and they were isolated from different biological materials taken from the patients hospitalized in the Warsaw Medical University hospitals. Antimicrobial activity was examined by the minimal inhibitory concentration (MIC) method under standard procedures provided by CLSI with some modifications. MIC was determined by the two-fold serial broth microdilution method in 96-well microtitration plates using Mueller-Hinton II broth medium (Becton Dickinson, Franklin Lakes, NJ, USA). The final inoculum of all studied bacteria was 10^6 CFU/mL (colony forming unit per milliliter). The stock solution of tested compounds was prepared in dimethyl sulfoxide (DMSO) and diluted to a maximum of 1% of solvent content with a sterile medium.

P. aeruginosa ATCC 15442 = assay: MIC broth microdilution, standard strain; format: cell-based; details: Pseudomonas aeruginosa, ATCC15442; P. aeruginosa ATCC 15442, standard strain, 19 h at 35 °C; read-out: minimal inhibitory concentration (MIC)
Protocol: as §2

S. aureus ATCC 25923 = assay: MIC broth microdilution, standard strain; format: cell-based; details: Staphylococcus aureus, ATCC25923; S. aureus ATCC 25923, standard strain, 19 h at 35 °C; read-out: minimal inhibitory concentration (MIC)
Protocol: as §2

S. aureus NCTC 4163 = assay: MIC broth microdilution, standard strain; format: cell-based; details: Staphylococcus aureus, NCTC4163; S. aureus NCTC 4163, standard strain, 19 h at 35 °C; read-out: minimal inhibitory concentration (MIC)
Protocol: as §2

[3] = molecular target: S. aureus topoisomerase IV (Staphylococcus aureus, UniProt P0C1S7+P0C1U9); assay: Topoisomerase IV decatenation assay; format: biochemical; details: decatenation of kinetoplast DNA, read-out: IC50 ± S.E.M. for Topoisomerase IV (converted)
Protocol: Description related to conducted biological studies including cell culture, suitable conditions, and methodology was presented in our previous paper.
Figure 1 The effect of tested compounds on S. aureus topoisomerase IV activity. Decreasing amounts of 1, 2, or 3 were incubated with 200 ng kinetoplast DNA and run-on agarose gel. Lane: 1–5: compound 3 at concentrations 64, 32, 8, 2, 0.5 μg/mL, respectively. Lane: 6–10: compound 2 at concentrations 64, 32, 8, 2, 0.5 μg/mL, respectively. Lane: 11–15: compound 1 at concentrations 64, 32, 8, 2, 0.5 μg/mL, respectively.

Structure (SMILES) | MIC (S. aureus ATCC 29213) [µg/mL] | MIC (S. aureus ATCC 6538) [µg/mL] | MIC [1] [µg/mL] | MIC [2] [µg/mL] | MIC (E. coli ATCC 25922) [µg/mL] | MIC (P. aeruginosa ATCC 15442) [µg/mL] | MIC (S. aureus ATCC 25923) [µg/mL] | MIC (S. aureus NCTC 4163) [µg/mL] | IC50 [3] [nM]
CC(C)C12C=CC(C)(CC1)C1C(=O)N(Nc3nnnn3-c3ccccc3)C(=O)C12 (centres unmarked) [Compound 11, 4-Isopropyl-7-methyl-2-((1-phenyl-1H-tetrazol-5-yl)amino)-3a,4,7,7a-tetrahydro-1H-4,7-ethanoisoindole-1,3(2H)-dione] | 128 (≈ 326 µM) | 128 (≈ 326 µM) | 256 (≈ 652 µM) | 128 (≈ 326 µM) | > 256 | > 256 | 128 (≈ 326 µM) | 128 (≈ 326 µM) | 
CC1=C(C)C2(C)CC1(C)C1C(=O)N(Nc3nnnn3-c3ccc(C)cc3)C(=O)C12 (centres unmarked) [Compound 5, 4,5,6,7-Tetramethyl-2-((1-(p-tolyl)-1H-tetrazol-5-yl)amino)-3a,4,7,7a-tetrahydro-1H-4,7-methanoisoindole-1,3(2H)-dione] | > 256 | > 256 | > 256 | > 256 | > 256 | > 256 | > 256 | > 256 | 
COc1c(N2C[C@@H]3CCCN[C@@H]3C2)c(F)cc2c(=O)c(C(=O)O)cn(C3CC3)c12 [Moxifloxacin, reference compound] |  |  |  |  |  |  |  |  | 2240

Second part, led by results:

MIC (S. aureus ATCC 29213) [µg/mL] | MIC (S. aureus ATCC 6538) [µg/mL] | MIC [1] [µg/mL] | MIC [2] [µg/mL] | MIC (E. coli ATCC 25922) [µg/mL] | MIC (P. aeruginosa ATCC 15442) [µg/mL] | MIC (S. aureus ATCC 25923) [µg/mL] | MIC (S. aureus NCTC 4163) [µg/mL] | Structure (SMILES) | IC50 [3] [nM]
64 (≈ 150 µM) | 32 (≈ 75 µM) | 128 (≈ 300 µM) | 32 (≈ 75 µM) | 128 (≈ 300 µM) | > 256 | 32 (≈ 75 µM) | 32 (≈ 75 µM) | CC(C)C12C=CC(C)(CC1)C1C(=O)N(Nc3nnnn3-c3ccccc3Cl)C(=O)C12 (centres unmarked) [Compound 7, 2-((1-(2-Chlorophenyl)-1H-tetrazol-5-yl)amino)-4-isopropyl-7-methyl-3a,4,7,7a-tetrahydro-1H-4,7-ethanoisoindole-1,3(2H)-dione] | 
 |  |  |  | 0.015 (≈ 0.0453 µM) | 0.125 (≈ 0.377 µM) | 0.5 (≈ 1.51 µM) | 0.125 (≈ 0.377 µM) | O=C(O)c1cn(C2CC2)c2cc(N3CCNCC3)c(F)cc2c1=O [Ciprofloxacin, reference compound] | 
